{"source": "patent US20080058345A1", "about": "“Combination Therapy with Mecamylamine for the Treatment of Mood Disorders” (priority 2004, published 2008)", "test_system": "individuals with major depression who are partial responders (based on HAM-D scores) to selective serotonin reuptake inhibitors", "assay": "8-week clinical trial of mecamylamine plus SSRI antidepressant versus placebo plus antidepressant", "format": "in vivo, human", "experimental": "The treatment of depressive symptoms in individuals with major depression who are partial responders (based on HAM-D scores) to selective serotonin reuptake inhibitors (e.g., fluoxetine, sertraline, citalopram, paroxetine, fluvoxamine) was assessed.\nSubjects (n=13) were randomly assigned to one of two groups, designated mecamylamine or MEC and Placebo, respectively, for an 8-week clinical trial. Individuals in the MEC group received mecamylamine plus an antidepressant and those in the placebo group received placebo plus an antidepressant Eleven subjects (n=6 randomized to MEC, n=5 to placebo) have completed this 8-week clinical trial and results are presented for those individuals. Two subjects are currently enrolled in the protocol. No clinical or demographic differences have been found between subjects randomized to MEC versus Placebo (Table). […] These preliminary results support our primary hypothesis that central nAChR antagonism augments SSRI-treated refractory major depression."}
{"compound": "CNC1(C)C2CCC(C2)C1(C)C", "note": "(stereo not shown) [MEC, Bicyclo(2.2.1)heptan-2-amine, N,2,3,3-tetramethyl-]", "values": [{"measurement": "difference between MEC and Placebo groups on any adverse events", "setting": "8-week trial, MEC plus antidepressant versus placebo plus antidepressant", "result": "no significant differences"}, {"measurement": "adverse event: report of decreased libido (subjects reporting)", "setting": "8-week trial, MEC plus antidepressant, placebo 1/5, p=0.06", "result": "4/5"}, {"measurement": "adverse event: constipation (subjects reporting)", "setting": "8-week trial, MEC plus antidepressant, placebo 3/5, p=0.11", "result": "5/6"}, {"measurement": "subjects classified as responders, as assessed by a 50% reduction in HAM-D scores", "setting": "end of 8-week trial, MEC plus antidepressant, n=6 completers, placebo 0/5, p=0.02", "result": "Four out of six"}]}
